From patent US20160166520A1, “METHODS AND COMPOSITIONS RELATING TO THE TREATMENT OF VISCERAL FAT AND ASTHMA” (YALE UNIVERSITY, priority 2014, published 2016)

Tests used:
Sirt1 [1] = target: T1, Sirt1 (Mus musculus, UniProt Q923E4); test: OVA aeroallergen-induced adaptive Th2 lung inflammation in mice treated with Sirt1 inhibitor; type: in vivo; settings: OVA sensitized and challenged, 0.4 mg/kg body weight per day i.p. one hour before every antigen challenge, vs DMSO vehicle
T1 construct: from tissue; host or cells: whole living mice (WT and Chi3l1-/-); read-outs in lung/BAL and epididymal fat pads
T1 sequence (Q923E4 1-737): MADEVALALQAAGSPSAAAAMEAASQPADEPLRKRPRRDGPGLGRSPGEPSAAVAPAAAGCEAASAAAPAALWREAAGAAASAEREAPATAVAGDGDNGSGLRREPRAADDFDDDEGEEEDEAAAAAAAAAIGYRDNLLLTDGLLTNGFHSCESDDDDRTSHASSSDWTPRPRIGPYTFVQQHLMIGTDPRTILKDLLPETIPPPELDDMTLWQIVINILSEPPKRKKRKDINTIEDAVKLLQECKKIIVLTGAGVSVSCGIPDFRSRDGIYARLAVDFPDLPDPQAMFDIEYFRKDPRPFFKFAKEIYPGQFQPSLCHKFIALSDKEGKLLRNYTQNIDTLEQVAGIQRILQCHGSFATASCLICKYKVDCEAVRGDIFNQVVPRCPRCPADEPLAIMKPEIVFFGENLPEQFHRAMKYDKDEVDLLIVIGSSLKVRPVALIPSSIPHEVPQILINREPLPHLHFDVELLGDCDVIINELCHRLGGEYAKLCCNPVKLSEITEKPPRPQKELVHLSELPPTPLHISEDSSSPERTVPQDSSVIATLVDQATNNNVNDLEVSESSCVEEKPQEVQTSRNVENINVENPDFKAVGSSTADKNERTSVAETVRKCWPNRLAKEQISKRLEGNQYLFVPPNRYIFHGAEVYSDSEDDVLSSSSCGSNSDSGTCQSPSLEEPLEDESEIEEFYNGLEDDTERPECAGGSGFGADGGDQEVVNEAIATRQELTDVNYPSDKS
Protocol: WT and Chit3l1^−/− mice were sensitized and challenged with OVA (ova+) or PBS (ova−) and were treated with Sirtinol or its vehicle (DMSO). Each animal received drug (0.4 mg/kg body weight per day) or vehicle one hour before every antigen challenge. FIGS. 6A-6B depict BAL total cell and eosinophil recovery, FIG. 6C depicts H&E photomicrographs of lungs from WT and Chi3l1^−/− mice treated with sirtinol or vehicle after OVA challenge, FIGS. 6D-6H depict the levels of mRNA encoding IL-4, IL-13, IL-17, IL-6 and TNF-α in the lungs of WT and Chi3l1^−/− mice treated with Sirtinol or DMSO. The noted values represent the mean±SEM of a minimum of 5 animals. (*p≦0.05, **p≦0.01). Mice were sensitized and challenged with ovalbumin (OVA) as previously described (20). One day after last challenge, the mice were sacrificed, bronchoalveolar lavage (BAL) was undertaken, and tissue responses were evaluated. Sirtinol, a Sirt1 inhibitor (Enzo Life Sciences) or vehicle control (0.05% dimethyl sulofoxide) were diluted with Phosphate Buffered Saline (PBS) and administered via an intraperitoneal (i.p.) route.

Sirt1 [2] = target: T1, Sirt1; test: Visceral (epididymal) fat accumulation in mice treated with Sirt1 inhibitor; type: in vivo; settings: 0.4 mg/kg body weight per day i.p. twice per week for 5 weeks, vs DMSO vehicle
Protocol: WT and Chi3l1^−/− mice were treated with Sirtinol or its vehicle (DMSO) and fat accumulation was assessed. Each animal received drug (0.4 mg/kg body weight per day) or vehicle twice per week for 5 weeks. FIG. 7A depicts a representative photograph illustrating abdominal fat accumulation, FIG. 7B depicts the weight of epididymal fat pads from WT and chi3l1^−/− mice. The noted values represent the mean±SEM of a minimum of 5 animals. (*P≦0.05, **p≦0.01). Sirtinol, a Sirt1 inhibitor (Enzo Life Sciences) or vehicle control (0.05% dimethyl sulofoxide) were diluted with Phosphate Buffered Saline (PBS) and administered via an intraperitoneal (i.p.) route.

levels of visceral fat (Sirt1 [2]; Chi3l1 null mice): restored
levels of visceral fat (Sirt1 [2]; WT mice): did not significantly alter
Structure (SMILES): CC(NC(=O)c1ccccc1/N=C/c1c(O)ccc2ccccc12)c1ccccc1 (stereo not shown) [Sirtinol]
aeroallergen induced Th2 inflammation and Th2, IL-17 and IL-6 cytokine expression, and airway mucus (Sirt1 [1]; Chi3l1 null mice): restored
aeroallergen-induced Th2 inflammation and Th2, IL-17 and IL-6 cytokine production and mucus production in the lung (Sirt1 [1]; WT mice): diminished
